Like-named read-outs stand apart in the source and are kept apart here.
Tests used:
[1] = system: Rabbit Reticulocyte Lysate; test: In Vitro Screening in Rabbit Reticulocyte Lysates - luciferase (RLU); assay type: biochemical; conditions: 250 ng 2′-fluoro-containing luciferase mRNA, 60 minutes, 30° C., background about 160 RLU
Protocol: The diluted luciferase was added to 40 ul of freshly prepared Rabbit Reticulocyte Lysate and the in vitro translation reaction was done in a standard 1.5 mL polypropylene reaction tube (Thermo Fisher Scientific, Waltham, Mass.) at 30° C. in a dry heating block. The translation assay was done with the Rabbit Reticulocyte Lysate (nuclease-treated) kit (Promega, Madison, Wis.) according to the manufacturer's instructions. The reaction buffer was supplemented with a one-to-one blend of provided amino acid stock solutions devoid of either Leucine or Methionine resulting in a reaction mix containing sufficient amounts of both amino acids to allow effective in vitro translation.
After 60 minutes of incubation, the reaction was stopped by placing the reaction tubes on ice. […] The volumes of the in vitro translation reactions were adjusted or diluted until no more than 2 mio relative light units (RLUs) per well were detected for the strongest signal producing samples and the RLUs for each chemistry tested are shown in Table 29. The plate reader was a BioTek Synergy H1 (BioTek, Winooski, Vt.). […]
The 2′Fluoro-modified mRNA were then transfected into HeLa cells to assess protein production in a cell context and the same mRNA were also assessed in a cell-free rabbit reticulocyte system. […]

HeLa cells = test: In vitro Screening in HeLa Cells - luciferase (RLU); assay type: cell-based, human; parameters: key to Protein (Luc; HeLa): the protein production of HeLa is judged by “+,” “+/−” and “−”; the protein production of HeLa is judged by “+,” “+/−” and “−”; the protein production of HeLa is judged by “+,” “+/−” and “−”
Protocol: The 2′Fluoro-modified mRNA were then transfected into HeLa cells to assess protein production in a cell context and the same mRNA were also assessed in a cell-free rabbit reticulocyte system. A control of unmodified luciferase (natural luciferase) was used for both transcription experiments, a control of untreated and mock transfected (Lipofectamine 2000 alone) were also analyzed for the HeLa transfection and a control of no RNA was analyzed for the rabbit reticulysates.
For the HeLa transfection experiments, the day before transfection, 20,000 HeLa cells (ATCC no. CCL-2; Manassas, Va.) were harvested by treatment with Trypsin-EDTA solution (LifeTechnologies, Grand Island, N.Y.) and seeded in a total volume of 100 ul EMEM medium (supplemented with 10% FCS and 1× Glutamax) per well in a 96-well cell culture plate (Corning, Manassas, Va.). The cells were grown at […] in 5% CO2 atmosphere overnight. […] Lipofectamine 2000 (LifeTechnologies, Grand Island, N.Y.) was used as transfection reagent and 0.2 ul were diluted in 10 ul final volume of OPTI-MEM. After […] of incubation at room temperature, both solutions were combined and incubated an additional 15 minute at room temperature. Then the 20 ul combined solution was added to the 100 ul cell culture medium containing the HeLa cells and incubated at room temperature. After 18 to 22 hours of incubation cells expressing luciferase were lysed with 100 ul of Passive Lysis Buffer (Promega, Madison, Wis.) according to manufacturer instructions. Aliquots of the lysates were transferred to white opaque polystyrene 96-well plates (Corning, Manassas, Va.) and combined with 100 ul complete luciferase assay solution (Promega, Madison, Wis.). The lysate volumes were adjusted or diluted until no more than 2 mio relative light units (RLU) per well were detected for the strongest signal producing samples and the RLUs for each chemistry tested are shown in Table 42. The plate reader was a BioTek Synergy H1 (BioTek, Winooski, Vt.). The background signal of the plates without reagent was about 200 relative light units per well.
To evaluate using of 2′fluoro-modified mRNA in combination with other modification a series of mRNA were transcribed using either wild-type T7 polymerase (non-fluoro-containing compounds) or using mutant T7 polymerases (fluyoro-containing compounds) as described in Example 86. All modified mRNA were tested by in vitro transfection in HeLa cells.
After 18 to 22 hours of incubation cells expressing luciferase were lysed with 100 ul of Passive Lysis Buffer (Promega, Madison, Wis.) according to manufacturer instructions. Aliquots of the lysates were transferred to white opaque polystyrene 96-well plates (Corning, Manassas, Va.) and combined with 100 ul complete luciferase assay solution (Promega, Madison, Wis.). The lysate volumes were adjusted or diluted until no more than 2 mio relative light units (RLU) per well were detected for the strongest signal producing samples and the RLUs for each chemistry tested are shown in Table 44. The plate reader was a BioTek Synergy H1 (BioTek, Winooski, Vt.). The background signal of the plates without reagent was about 200 relative light units per well.

[2] = molecular target: T1, mutant T7 polymerase (Durascribe T7 Transcription kit) (Escherichia phage T7, UniProt P00573, Y639F); conditions: Table 48 non-naturally occurring, in vitro transcription using mutant T7 polymerase
T1 construct: purchased Epicentre, Madison, Wis; DS010925
T1 sequence (P00573 whole entry Y639F): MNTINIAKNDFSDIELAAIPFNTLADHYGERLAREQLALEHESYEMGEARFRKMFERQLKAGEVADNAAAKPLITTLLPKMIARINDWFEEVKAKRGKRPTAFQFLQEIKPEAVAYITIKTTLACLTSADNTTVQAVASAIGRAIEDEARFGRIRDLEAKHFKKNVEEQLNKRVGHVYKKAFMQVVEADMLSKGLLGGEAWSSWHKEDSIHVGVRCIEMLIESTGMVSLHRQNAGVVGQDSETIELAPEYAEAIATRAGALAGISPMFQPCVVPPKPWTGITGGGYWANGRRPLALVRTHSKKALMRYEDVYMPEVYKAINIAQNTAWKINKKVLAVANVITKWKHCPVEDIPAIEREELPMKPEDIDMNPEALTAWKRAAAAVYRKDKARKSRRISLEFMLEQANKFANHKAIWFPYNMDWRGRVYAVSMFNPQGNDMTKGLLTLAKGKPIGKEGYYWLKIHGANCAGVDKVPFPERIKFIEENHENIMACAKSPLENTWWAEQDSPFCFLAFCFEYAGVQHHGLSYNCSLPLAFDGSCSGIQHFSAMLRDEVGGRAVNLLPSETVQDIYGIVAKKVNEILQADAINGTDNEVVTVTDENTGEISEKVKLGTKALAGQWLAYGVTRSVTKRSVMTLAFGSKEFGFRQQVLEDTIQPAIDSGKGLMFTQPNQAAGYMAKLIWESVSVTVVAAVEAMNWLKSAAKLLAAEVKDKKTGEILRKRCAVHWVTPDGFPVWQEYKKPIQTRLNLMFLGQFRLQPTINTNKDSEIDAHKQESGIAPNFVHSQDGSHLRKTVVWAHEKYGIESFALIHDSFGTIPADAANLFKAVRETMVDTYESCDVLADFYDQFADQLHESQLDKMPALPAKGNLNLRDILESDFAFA
Protocol: (§1) The luciferase and G-CSF modified mRNA were also subjected to an enzymatic capping reaction and each modified mRNA capping reaction was evaluated for yield by spectrophometic measurement (OD260) and correct size assessed using bioanalyzer.

wild-type T7 polymerase = wild-type T7 polymerase (Escherichia phage T7, UniProt P00573); test: In Vitro Transcription with Wild-Type T7 Polymerase (transcription and capping yield); conditions: Table 48 non-naturally occurring, Pass/Fail
Chain of wild-type T7 polymerase (P00573 whole entry): as the sequence (P00573 whole entry Y639F) above, with F639Y counted along it
Protocol: as §1

[3] = system: PBMC, interferon-alpha (IFN-alpha); test: 2′Fluoro Chemistries in PBMC - IFN-alpha production; assay type: cell-based, human; conditions: G-CSF modified mRNA, ELISA, average of 3 donors
[4] = system: female BALB/C mice, interferon-alpha (IFN-alpha); conditions: mouse, in vivo
[5] = system: PBMC, tumor necrosis factor-alpha (TNF-alpha); test: 2′Fluoro Chemistries in PBMC - TNF-alpha production; assay type: cell-based, human; conditions: G-CSF modified mRNA, ELISA, average of 2 donors
[6] = system: human PBMC, tumor necrosis factor alpha (TNF-alpha)
female BALB/C mice = test: In Vivo Detection of Innate Immune Response Study - human G-CSF protein in serum; conditions: human G-CSF in mouse serum; I.M.; 8 hours after dosing
Protocol: Blood is collected at 8 hours after dosing.

[7] = system: female BALB/C mice, interferon-alpha (IFN-alpha); test: In Vivo Detection of Innate Immune Response Study - mouse IFN-alpha in serum

For “Natural Luciferase: natural luciferase mRNA (SEQ ID NO: 3), Cap1 [reference compound]”, the RLU [1] was 2,159,968 RLU, the RLU (HeLa cells; 83 ng 2′fluoro-containing luciferase mRNA, Lipofectamine 2000, HeLa cells) was 133,853.5 RLU and the RLU (HeLa cells; 83 ng luciferase mRNA with combination of modifications, HeLa cells, 18 to 22 hours, background about 200 RLU) was 30,801 RLU.

For 2′-F-adenosine, the “IVT (G-CSF), second result **” value [2] was “Fail/Fail**”, the “IVT (Luc), second result **” value [2] was “Pass” and the “IVT (G-CSF), first result” value (wild-type T7 polymerase; G-CSF mRNA in vitro transcription) was “Fail/Fail**”. For the same molecule, the “IVT (Luc), first result” value (wild-type T7 polymerase; luciferase mRNA in vitro transcription) was “Fail” and the “Protein (Luc; HeLa)” value (HeLa cells; Table 48 non-naturally occurring, ** mutant T7 polymerase) was “−**”.

With CCOCc1nc2c(N)nc3ccccc3c2n1CC(C)(C)O [Compound R-848] the “IFN-alpha: 3 Donor Average” value [3] was 45 pg/mL, the IFN-alpha expression [4] was 40.97 pg/mL and the “TNF-alpha: 2 Donor Average (pg/ml)” value [5] was 8,235 pg/ml. For the same molecule, the “TNF-alpha: 3 Donor Average” value [6] was 1477 pg/mL and the G-CSF protein (female BALB/C mice) was 3.4 pg/mL.

B1: GCSF mRNA unmod: G-CSF mRNA (SEQ ID NO: 1) unmodified, 5′ cap of Cap1 (nucleic acid, listed as Homo Sapiens)
chain: GGGAAAUAAGAGAGAAAAGAAGAGUAAGAAGAAAUAUAAGAGCCACCAUGGCCGGUCCCGCGACCCAAAGCCCCAUGAAACUUAUGGCCCUGCAGUUGCUGCUUUGGCACUCGGCCCUCUGGACAGUCCAAGAAGCGACUCCUCUCGGACCUGCCUCAUCGUUGCCGCAGUCAUUCCUUUUGAAGUGUCUGGAGCAGGUGCGAAAGAUUCAGGGCGAUGGAGCCGCACUCCAAGAGAAGCUCUGCGCGACAUACAAACUUUGCCAUCCCGAGGAGCUCGUACUGCUCGGGCACAGCUUGGGGAUUCCCUGGGCUCCUCUCUCGUCCUGUCCGUCGCAGGCUUUGCAGUUGGCAGGGUGCCUUUCCCAGCUCCACUCCGGUUUGUUCUUGUAUCAGGGACUGCUGCAAGCCCUUGAGGGAAUCUCGCCAGAAUUGGGCCCGACGCUGGACACGUUGCAGCUCGACGUGGCGGAUUUCGCAACAACCAUCUGGCAGCAGAUGGAGGAACUGGGGAUGGCACCCGCGCUGCAGCCCACGCAGGGGGCAAUGCCGGCCUUUGCGUCCGCGUUUCAGCGCAGGGCGGGUGGAGUCCUCGUAGCGAGCCACCUUCAAUCAUUUUUGGAAGUCUCGUACCGGGUGCUGAGACAUCUUGCGCAGCCGUGAAGCGCUGCCUUCUGCGGGGCUUGCCUUCUGGCCAUGCCCUUCUUCUCUCCCUUGCACCUGUACCUCUUGGUCUUUGAAUAAAGCCUGAGUAGGAAG
modifications: Cap1
For B1, the “PC Ratio” value ([7]; G-CSF protein / IFN-alpha in mouse serum) was 9, the IFN-alpha expression ([7]; mouse IFN-alpha in serum, I.M., 8 hours after dosing) was 67.01 pg/mL and the G-CSF protein (female BALB/C mice) was 605.6 pg/mL.

Reference: patent US20130123481A1, “MODIFIED NUCLEOSIDES, NUCLEOTIDES, AND NUCLEIC ACIDS, AND USES THEREOF” (MODERNA THERAPEUTICS, priority 2011, published 2013)
